Reference: patent US3985878A, “Anti-inflammatory and antirheumatic compounds and preparation” (priority 1974, dated 1976)
Values joined by “and” are separate entries in the source; they are usually repeats but may differ in a detail not shown here. Identical values can stand only once. Counter-ions that a name gives are not always drawn. Like-named read-outs stand apart in the source and are kept apart here.

Tests used:
[1] = Anti-inflammatory activity, paw test (Domenjoz test); type: in vivo, rat; details: read-out: ED50 per os, acute anti-inflammatory activity (Domenjoz test)
Method: 1a. Anti-inflammatory activity: this activity was measured by the paw test according to Doemnjoz, characterised in its carrying out by the following method:
To young rats of medium weight of 200 g there is administered by hypodermic injection into the right paw an aqueous suspension of carragheen at 1%, 1 hour after the oral administration of the drugs under investigation.
After two hours from the administration of the carragheen, the pawas are disjointed, weighed, and comparison is made between the injected paw, meanwhile swollen, and the paw not interfered with.
This evaluation is expressed both in mg/kg of animal weight and in micromoles/Kg of weight of the animal.

fibroblast culture = experiment: Production of mucopolysaccharides from fibroblast culture in vitro; type: cell-based; details: Fibroblast, 240 h; 10 μg/ml of culture liquid; read-out: Mucopolysaccharide products at the tenth day of incubation
Method: a. Tests in vitro: These tests consist of the cultivation in vitro, i.e., outside the organism, of tissue of the same embriological origin in relation to the osteoarticular. Upon the growth of this tissue there is then measured the activities of the various drugs. The units of measurement of these activities is the production of glucosaminoglicanes (mucopolysaccharides measured by the turbidimetric method).
The compounds which form the subject of this invention were evaluated according to this test and compared with known anti-inflammatories.

Solubility = type: physicochemical
[2] = Irritant and ulceroid (gastrolesive) activity on the gastric mucosa; details: in vivo, rat
Method: 4. Irritant and ulceroid activity on the gastric mucosa
The experimental evaluation of this activity was made on rats, by the method here reported:
The compound is administered orally to rats which have fasted for 12 hours, the animals being killed 4 hours after the administration.
Regarded as positive, i.e. with stomach damage, are those animals which have at least one haemorrhage point on the stomach wall.
By ED50 there is meant that dose of the drug which can […] in 50% of the animals treated, the formation of these haemorrhages.
In Table 6 there are compared CR 604 and Indometacin, since the latter is, amongst them all, the nearest to the anti-inflammatory activity values of CR 604.

[3] = Analgesic activity, phenylquinone test; type: in vivo, rat; details: rat, oral; read-out: ED50 per os, analgesic activity (phenylquinone test)
From the text: 2. Analgesic activity: The analgesic activity of an anti-inflammatory can be examined traditionally by the phenylquinone method based on the fact that intra-peritoneal administration to a rat of an irritant substance such as phenylquinone induces vocal reactions ("squirring") in the animal.
From the number of these reactions one judges the pain sensitivity.

[4] = rat, oral 1 hour before carragheen 1%, paws weighed after two hours
[5] = oral, fasted 12 hours, killed 4 hours after administration, read-out: ED50 gastrolesive

Row | SMILES | ED50 [1, 4] | solubility in acetone (Solubility) | solubility in ethanol (Solubility) | solubility in methanol (Solubility) | solubility in water, in words (Solubility; water) | also measured
1 | Cc1cccc(Nc2ccccc2C(=O)O)c1C [Mephenamic ac.] | 439 µmol/kg and 106 mg/kg | – | – | – | – | activity at 10 µg/mL (fibroblast culture): 58%
2 | CC(C)Cc1ccc(C(C)C(=O)O)cc1 (stereo not drawn) [Ibuprofen] | 436 µmol/kg and 90 mg/kg | – | – | – | – | –
3 | CCCN(CCC)C(=O)C(CCC(=O)OCCN1CCN(CCOC(=O)Cc2c(C)n(C(=O)c3ccc(Cl)cc3)c3ccc(OC)cc23)CC1)NC(=O)c1ccccc1 (racemic) [CR 626 (di-maleate), N'-2-[1-(p-chlorobenzoyl)-5-methoxy-2-methyl-3-indoleacetoxy]-ethyl-N-2-(N-benzoyl-N',N'-di-n-propyl-D,L-isoglutaminoyl)-oxyethyl-piperazine] | 15 µmol/kg and 16 mg/kg | slightly soluble | slightly soluble | more soluble | Insoluble | TD50 at 4 h [2, 5]: 342 µmol/kg; TD50 at 4 h ([2]; po): 363 mg/kg
4 | CC(=O)Oc1ccccc1C(=O)O [Acetylsalicylic ac.] | – | – | – | – | – | ED50 ([1]; Rattus norvegicus, po): 1250 µmol/kg and 226 mg/kg
5 | CCCN(CCC)C(=O)C(CCC(=O)OCCCN1CCN(CCCOC(=O)Cc2c(C)n(C(=O)c3ccc(Cl)cc3)c3ccc(OC)cc23)CC1)NC(=O)c1ccccc1 (racemic) [CR 613 (di-maleate), N'-3-[1(p-chlorobenzoyl)-5-methoxy-2-methyl-3-indoleacetoxy]-propyl-N-3-(N-benzoyl-N',N'-di-n-propyl-DL-isoglutaminoyl)-oxypropyl-piperazine] | 13.6 µmol/kg and 14.9 mg/kg | slightly soluble | slightly soluble | more soluble | Insoluble | TD50 at 4 h [2, 5]: 277 µmol/kg; TD50 at 4 h ([2]; po): 303 mg/kg
6 | CCCCC1C(=O)N(c2ccccc2)N(c2ccccc2)C1=O [Phenylbutazone] | 464 µmol/kg and 143 mg/kg | – | – | – | – | ED50 [3]: 324 µmol/kg and 100 mg/kg; activity at 10 µg/mL (fibroblast culture): 58%
7 | CCCN(CCC)C(=O)C(CCC(=O)OCCCN1CCN(CCOC(=O)Cc2c(C)n(C(=O)c3ccc(Cl)cc3)c3ccc(OC)cc23)CC1)NC(=O)c1ccccc1 (racemic) [CR 604 di-hydrochloride, N'-2-[1-(p-chlorobenzoyl)-5-methoxy-2-methyl-3-indoleacetoxy]ethyl-N-3-(N-benzoyl-N', N'-di-n-propyl-DL-isoglutaminoyl)-oxypropyl-piperazine] | – | Fairly soluble | Soluble | Soluble | Hardly soluble | solubility (Solubility; water, 25°): ~5 mg/mL
8 | CCCN(CCC)C(=O)C(CCC(=O)OCCCN1CCN(CCOC(=O)Cc2c(C)n(C(=O)c3ccc(Cl)cc3)c3ccc(OC)cc23)CC1)NC(=O)c1ccccc1 (racemic) [CR 604 dioxalate, N'-2-[1-(p-chlorobenzoyl)-5-methoxy-2-methyl-3-indoleacetoxy]ethyl-N-3-(N-benzoyl-N', N'-di-n-propyl-DL-isoglutaminoyl)-oxypropyl-piperazine] | – | slightly soluble | slightly soluble | slightly soluble | Insoluble | –
